From patent US11905251B1, “1-cyclopropyl-6-fluoro-7-(4-(2-hydroxy-3-(naphthalen-2-yloxy)propylpiperazin-1-yl)-4-oxo-1,4-dihydroquinoline-3-carboxylic acid as an eco-friendly insecticidal agent against Spodoptera littoralis (boisd.)” (priority 2023, dated 2024)
Values after ≈ are worked out from the molar mass of the structure shown.

System: Spodoptera littoralis (Boisd.) 2nd and 4th instar larvae
Assay: Insecticidal bioassay screening (castor leaf dip, larval mortality)
Format: in vivo
Conditions: for Toxic ratio: fenoxycarb's LC50 / compound's LC50 × 100
Procedure: Five concentrations (200, 100, 50, 25, 12.5 ppm) were designed for this synthetic compound and the reference fenoxycarb compound as the dynamic ingredients based on ppm via diluting the commercial formulation.
In this experiment, castor leaves are immersed in each of the previously prepared concentrations of the components for 10 seconds and then left to dry for 60 minutes. Larvae of the second and fourth instars of each checked strain are prepared with treated leaves in gauze-covered glass containers for 72 hrs. An untreated control is made in which leaves are dipped in triton x-100 and distilled water only. Then the preserved leaves were removed & fresh, untreated leaves were provided for 72 hours. Three replicates (10 larvae each) were checked for each concentration. Daily inspection was carried out for all treatments and mortality percentages were recorded 3 days (72 hours) after treatment. The average mortality percentage was corrected employing Abbott's formula. The corrected mortality rate for each of the previously synthesized compounds is statistically calculated according to Finney (1970). Through this rate, the corresponding concentration test lines (LDP lines) are assessed. Fifty and ninety percent mortality are determined, and the regression values for the checked products were previously evaluated.

[1] = Spodoptera littoralis, foliar, 72 h, 2nd instar larvae of S. littoralis, after 72 h of treatment
[2] = Spodoptera littoralis, foliar, 72 h, 4th instar larvae of S. littoralis, after 72 h of treatment
[3] = Spodoptera littoralis, foliar, against Spodoptera littoralis under laboratory conditions (instar not given)

Structure (SMILES) | LC50 (in vivo) | Toxic ratio (2nd instar larvae, 72 h) | Toxic ratio (4th instar larvae, 72 h) | LC50 [1] | LC50 [2] | LC50 [3] | activity against Spodoptera littoralis (in words) (compared with reference insecticide fenoxycarb)
O=C(O)c1cn(C2CC2)c2cc(N3CCN(CC(O)COc4ccc5ccccc5c4)CC3)c(F)cc2c1=O (stereo not shown) [listing 1 of 2 here] | about 103.01 ppm | – | – | – | – | – | –
O=C(O)c1cn(C2CC2)c2cc(N3CCN(CC(O)COc4ccc5ccccc5c4)CC3)c(F)cc2c1=O (stereo not shown) [listing 2 of 2 here] | about 44.08 ppm | – | – | – | – | – | –
O=C(O)c1cn(C2CC2)c2cc(N3CCN(CC(O)COc4ccc5ccccc5c4)CC3)c(F)cc2c1=O (stereo not shown) [Compound 7] | – | 6.1 | 41.9 | 44.1 µg/mL (≈ 82.9 µM) | 103 µg/mL (≈ 194 µM) | 44.1 µg/mL (≈ 82.9 µM) | active against Spodoptera littoralis
CCOC(=O)NCCOc1ccc(Oc2ccccc2)cc1 [Fenoxycarb, reference compound] | – | 100 | 1 | 2.73 µg/mL (≈ 9.06 µM) | 43.2 µg/mL (≈ 143 µM) | 2.73 µg/mL (≈ 9.06 µM) | –
